Measured values as given in patent US20100286082A1, “RIBOSWITCHES AND METHODS AND COMPOSITIONS FOR USE OF AND WITH RIBOSWITCHES” (Yale University, priority 2007, published 2010).

How the values were obtained:
17-90 RNA [1] = assay: Equilibrium dialysis of 3H-preQ1 with 17-90 RNA; assay type: binding, Streptococcus pneumoniae R6; details: excess unlabeled compound added to chamber a after equilibration
Experimental: Equilibrium dialysis experiments were preformed with ^3H-preQ1 and the 17-90 RNA construct to confirm ligand binding and the specificity of molecular recognition using a different methodology. For equilibrium dialysis, ^3H-preQ1 was added to chamber a of an equilibrium dialysis apparatus, and excess RNA is added to chamber b. The two chambers are separated by a 5,000 Dalton molecular weight cut off dialysis membrane (FIG. 18A). The solutions were allowed to equilibrate and the fraction of tritium in each chamber was subsequently measured by liquid scintillation counting. […] When ^3H-preQ1 ([…]) is equilibrated without RNA, or with an RNA that lacks the ability to form the P3 stem (1-81 RNA), the ^3H label distributes evenly (b/a ˜1). […]
A 30 μl mixture containing 50 mM Tris-HCl (pH 8.3 at 23° C.), 20 mM MgCl2, 100 mM KCl, and 1 μM of ^3H-labeled preQ1 was placed in one chamber of a DispoEquilibrium Dialyzer (ED-1, Harvard Bioscience) and the same volume containing the same constituents minus the ^3H-labeled preQ1 was added to the opposing side. When noted, the latter solution also contained either 5 μM 17-90 RNA or 5 μM 1-81 RNA. After equilibrating for 14 hours, a 5 μl aliquot was removed from each side of the apparatus to determine the distribution of ^3H-label in the two chambers by liquid scintillation counting. […]

17-90 RNA [2] = assay: In-line probing of 17-90 RNA (preQ1-II aptamer); assay type: binding, Streptococcus pneumoniae R6; details: compound concentrations up to 1 mM
17-90 RNA mutant U41 = assay: In-line probing of mutant (U41) 17-90 RNA; assay type: binding, Streptococcus pneumoniae R6; details: compared with wild type
68 metH RNA = assay: In-line probing of 68 metH RNA (SAH aptamer); assay type: binding, Dechloromonas aromatica; details: in-line probing; read-out: apparent dissociation constant KD
Experimental: iii. In-Line Probing Analysis In-line probing assays were carried out essentially as previously described (Soukup and Breaker, 1999). 5′^32P-labeled RNAs were incubated at room temperature for approximately 40 h in 10 μl volumes containing 50 mM Tris-HCl (pH 8.3 at 25° C.), 20 mM MgCl2, 100 mM KCl, and included test compounds at the concentrations indicated. Spontaneous cleavage products were separated by denaturing 10% PAGE, visualized using a Phosphorlmager (Molecular Dynamics), and quantified using SAFA v1.1 software (Das et al., 2005). The amount of RNA cleaved at each nucleotide position was obtained from SAFA analysis, which automatically determines reference nucleotide positions with invariant levels of spontaneous cleavage to correct for different amounts loaded in each lane. Individual band intensities at each modulated site were summed and normalized to obtain values for the fraction of RNA that was structurally modulated, assuming that there was no modulation in the absence of ligand and maximal modulation in the presence of the highest concentration of ligand. Values for the apparent dissociation constant (KD) were determined by fitting the plot of the fraction modulated (F), versus the ligand concentration, [L], at all three indicated modulation sites to the equation F [L]/([L]+KD) using SigmaPlot 9 software (Systat Software, Inc.).

[3] = system: SAH riboswitch of the ahcY 5′-UTR fused to lacZ (WT reporter strain); assay: In vivo reporter gene expression, ahcY 5′ UTR-lacZ translational fusion; assay type: cell-based, Pseudomonas syringae; details: Vogel-Bonner minimal medium supplemented with 250 μM compound
Experimental: An in vivo gene control assay was conducted wherein the IGR encompassing the 5′ UTR of the ahcY gene in P. syringae was fused immediately upstream of a lacZ coding sequence. This construct retained the start codon of the ahcY gene, which was fused in frame with the reporter gene ORF. The resulting translational fusion vector was transformed into P. syringae to produce the wild-type (WT) reporter strain. Similarly, a series of mutant reporter strains were constructed that are expected to disrupt or restore aptamer function (FIG. 13A). Transformed P. syringae strains subsequently were grown in either King's medium B (rich) or Vogel-Bonner medium (minimal), and the reporter expression levels of the mutant constructs were compared to the results from the WT reporter construct (FIG. 13B).
Nucleotides ˜367 to +6 relative to the predicted ahcY translation start site (GenBank accession: NC—004578.1; nucleotides 5,771,072 to 5,771,444) were amplified as a BamHI-HindIII fragment by whole-cell PCR of Pseudomonas syringae pv. tomato str. DC3000. The PCR product was cloned into the translational fusion vector pRA301 (Akakura and Winans, 2002) immediately upstream of the lacZ reporter gene. This reporter vector is stably maintained in pseudomonas since it harbors the origin of replication rep and stability region sta derived from the pseudomonas aeruginosa vector pVS1 (Itoh et al., 1984). […]

[4] = target: 132 Sc RNA (SAM-IV riboswitch); assay: In-line probing of 132 Sc RNA (SAM-IV); assay type: binding, Streptomyces coelicolor
Text: DNA corresponding to the aptamer in the pEZ35 plasmid (above) was amplified by PCR with primers 5′-[…]

[5] = target: SAM-I riboswitch 124 yitJ; assay: SAM-I riboswitch binding (literature); details: ratio of the KD for the compound to that for SAM
SAM-II aptamer 156 metA = details: representative of SAM-II aptamers, Lim et al., 2006b; cited from earlier work
[6] = target: SAM-I riboswitch 124 yitJ; details: cited from earlier work

For Nc1nc2nc[nH]c2c(=O)[nH]1 [guanine], the “competition with 3H-preQ1 (distribution of 3H label)” value (17-90 RNA [1]) was “has no effect on the distribution of ^3H”.
For Nc1nc(N)c2[nH]cnc2n1 [DAP, 2,6-diaminopurine], the “binding by 17-90 RNA” value (17-90 RNA [2]) was “near identical KD values” and the “binding by the U41 mutant” value (17-90 RNA mutant U41) was “essentially the same affinity as wild type”.
In the case of Nc1ncnc2c1ncn2[C@@H]1O[C@H](CSCC[C@H](N)C(=O)O)[C@@H](O)[C@H]1O [SAH, S-adenosylhomocysteine], the Kd (68 metH RNA) is reported as about 20 nM, the riboswitch-mediated reporter expression [3] is reported as “only slightly increases reporter expression” and the Kd ([4]; in-line probing, 132 Sc RNA, read-out: apparent dissociation constant (KD)) is reported as 20000 nM. The “KD [compound]/ KD [SAM] SAM-IV” value ([4]; ratio of the KD for the compound to that for SAM) was 133, the “KD [compound]/ KD [SAM] SAM-I” value [5] was 80 and the “discrimination against SAH” value (SAM-II aptamer 156 metA) was “more than 1000 fold”. The Kd ([6]; calculated previously (Lim et al. 2006), read-out: KD [compound] (nM) SAM-I) was 400 nM and the “discrimination against SAH” value ([6]; representative of SAM-I aptamers, Lim et al., 2006b) was about 80 fold.
